ChEMBL document CHEMBL1141654, “Protective effects of amide constituents from the fruit of Piper chaba on D-galactosamine/TNF-alpha-induced cell death in mouse hepatocytes” (2008)

Key:
Assay type in all cases: functional
Hepatocyte [1] = assay: Inhibition of D-galactosamine/TNFalpha-induced cell death in ddY mouse hepatocytes at 3 uM after 20 hrs by MTT assay
Hepatocyte [2] = assay: Inhibition of D-galactosamine/TNFalpha-induced cell death in ddY mouse hepatocytes at 10 uM after 20 hrs by MTT assay
Hepatocyte [3] = assay: Inhibition of D-galactosamine/TNFalpha-induced cell death in ddY mouse hepatocytes at 30 uM after 20 hrs by MTT assay
Hepatocyte [4] = assay: Inhibition of D-galactosamine/TNFalpha-induced cell death in ddY mouse hepatocytes at 1 uM after 20 hrs by MTT assay
Mus musculus [5] = assay: Inhibition of D-galactosamine/LPS-induced liver injury in ddY mouse assessed as serum GOT level at 10 mg/kg, po
Mus musculus [6] = assay: Inhibition of D-galactosamine/LPS-induced liver injury in ddY mouse assessed as serum GPT level at 10 mg/kg, po
Mus musculus [7] = assay: Inhibition of D-galactosamine/LPS-induced TNFalpha level in ddY mouse serum at 10 mg/kg, po by ELISA
Hepatocyte [8] = assay: Inhibition of D-galactosamine/TNFalpha-induced cell death in ddY mouse hepatocytes assessed as cell viability at 30 uM after 20 hrs by MTT assay; conditions: read-out: Activity
Hepatocyte [9] = assay: Inhibition of D-galactosamine/TNFalpha-induced cell death in ddY mouse hepatocytes assessed as cell viability at 100 uM after 20 hrs by MTT assay; conditions: read-out: Activity
Hepatocyte [10] = assay: Inhibition of D-galactosamine-induced cell death in ddY mouse hepatocytes assessed as cell viability at 10 uM after 44 hrs by MTT assay; conditions: read-out: Activity
Hepatocyte [11] = assay: Inhibition of D-galactosamine-induced cell death in ddY mouse hepatocytes assessed as cell viability at 30 uM after 44 hrs by MTT assay; conditions: read-out: Activity
Hepatocyte [12] = assay: Inhibition of D-galactosamine-induced cell death in ddY mouse hepatocytes assessed as cell viability at 100 uM after 44 hrs by MTT assay; conditions: read-out: Activity
L929 [13] = assay: Inhibition of TNF-alpha-induced cell death in […] assessed as cell viability at 10 uM after 20 hrs by MTT assay; conditions: L929, 20 h, read-out: Activity
L929 [14] = assay: Inhibition of TNF-alpha-induced cell death in […] assessed as cell viability at 30 uM after 20 hrs by MTT assay; conditions: L929, 20 h, read-out: Activity
L929 [15] = assay: Inhibition of TNF-alpha-induced cell death in […] assessed as cell viability at 100 uM after 20 hrs by MTT assay; conditions: L929, 20 h, read-out: Activity
Mus musculus [16] = assay: Inhibition of D-galactosamine/LPS-induced liver injury in ddY mouse assessed as serum GOT level at 2.5 mg/kg, po
Mus musculus [17] = assay: Inhibition of D-galactosamine/LPS-induced liver injury in ddY mouse assessed as serum GOT level at 5 mg/kg, po
Mus musculus [18] = assay: Inhibition of D-galactosamine/LPS-induced liver injury in ddY mouse assessed as serum GPT level at 2.5 mg/kg, po
Mus musculus [19] = assay: Inhibition of D-galactosamine/LPS-induced liver injury in ddY mouse assessed as serum GPT level at 5 mg/kg, po
Mus musculus [20] = assay: Inhibition of D-galactosamine/LPS-induced TNFalpha level in ddY mouse serum at 5 mg/kg, po by ELISA
Mus musculus [21] = assay: Inhibition of D-galactosamine/LPS-induced TNFalpha level in ddY mouse serum at 20 mg/kg, po by ELISA
Hepatocyte [22] = assay: Inhibition of D-galactosamine/TNFalpha-induced cell death in ddY mouse hepatocytes assessed as cell viability at 10 uM after 20 hrs by MTT assay; conditions: read-out: Activity

SMILES | inhibition at 3 µM (Hepatocyte [1]) [%] | inhibition at 10 µM (Hepatocyte [2]) [%] | inhibition at 30 µM (Hepatocyte [3]) [%] | inhibition at 1 µM (Hepatocyte [4]) [%] | further results
O=Cc1ccc2c(c1)OCO2 [PIPERONAL] | 20 | 23 | 39 | – | –
CC(C)CNC(=O)/C=C/CCc1ccc2c(c1)OCO2 [4,5-DIHYDROPIPERLONGUMININE] | 43 | 43 | 66 | 34 | –
O=C(/C=C/C=C/CCCC/C=C/c1ccc2c(c1)OCO2)N1CCCCC1 [PIPERUNDECALIDIENE] | 40 | 49 | 58 | 27 | –
O=C(CCCCCC/C=C/c1ccc2c(c1)OCO2)N1CCCCC1 [PIPERROLEIN B] | 29 | 33 | 64 | 20 | –
CCC(C)CNC(=O)/C=C/C=C/c1ccc2c(c1)OCO2 (stereo not given) [PIPERCHABAMIDE E] | 34 | 71 | 98 | – | –
C[C@]12CCC(=O)C=C1CC[C@@H]1[C@@H]2[C@@H](O)C[C@@]2(C)[C@H]1CC[C@]2(O)C(=O)CO [HYDROCORTISONE] | – | – | – | – | inhibition in vivo at 10 mg/kg (Mus musculus [5]): 94.2%; inhibition in vivo at 10 mg/kg (Mus musculus [6]): 97.7%; inhibition in vivo at 10 mg/kg (Mus musculus [7]): 92.1%
O=C(/C=C/CCCC/C=C/c1ccc2c(c1)OCO2)N1CCCCC1 [PIPERNONALINE] | 17 | 31 | 48 | – | –
COC(=O)/C=C/C=C/c1ccc2c(c1)OCO2 [METHYL PIPERATE] | 18 | 29 | 21 | – | –
CC(C)CNC(=O)/C=C/C=C/CCCCCCCC/C=C/c1ccc2c(c1)OCO2 [BRACHYSTAMIDE B] | 22 | 11 | -6 | – | –
CCCCC/C=C/C=C/C(=O)NCC(C)C [PELLITORIN] | 19 | 25 | 42 | – | –
O=C(/C=C/C=C/CCCCCC/C=C/c1ccc2c(c1)OCO2)N1CCCCC1 [PIPERCHABAMIDE C] | 42 | 52 | 68 | – | –
CC(C)CNC(=O)/C=C/C=C/c1ccc2c(c1)OCO2 [PIPERLONGUMININE] | 50 | 54 | 66 | 27 | –
O=C(/C=C/C=C/c1ccc2c(c1)OCO2)N1CCCCC1 [PIPERINE] | 23 | 46 | 68 | – | viability at 30 µM (Hepatocyte [8]): 76.1%; viability at 100 µM (Hepatocyte [9]): 84.3%; viability at 10 µM (Hepatocyte [10]): 40.6%; viability at 30 µM (Hepatocyte [11]): 36.5%; viability at 100 µM (Hepatocyte [12]): 29.2%; viability at 10 µM (L929 [13]): 64%; viability at 30 µM (L929 [14]): 66.2%; viability at 100 µM (L929 [15]): 92.2%; inhibition in vivo at 2.5 mg/kg (Mus musculus [16]): 0.3%; inhibition in vivo at 5 mg/kg (Mus musculus [17]): 50.7%; inhibition in vivo at 10 mg/kg (Mus musculus [5]): 96.1%; inhibition in vivo at 2.5 mg/kg (Mus musculus [18]): 23.2%; inhibition in vivo at 5 mg/kg (Mus musculus [19]): 51.1%; inhibition in vivo at 10 mg/kg (Mus musculus [6]): 94.3%; inhibition in vivo at 5 mg/kg (Mus musculus [20]): 15.7%; inhibition in vivo at 10 mg/kg (Mus musculus [7]): 9.2%; inhibition in vivo at 20 mg/kg (Mus musculus [21]): -2.2%; viability at 10 µM (Hepatocyte [22]): 72.4%
CC(C)CNC(=O)/C=C/C=C/CC/C=C/c1ccc2c(c1)OCO2 [RETROFRACTAMIDE A] | 32 | 35 | 60 | 40 | –
CC(C)CNC(=O)/C=C/CCCC/C=C/c1ccc2c(c1)OCO2 [RETROFRACTAMIDE C] | 51 | 31 | 37 | 30 | –
O=C1C=CCCN1C(=O)CCc1ccccc1 [PIPERCHABAMIDE A] | 29 | 32 | 70 | – | –
CC(C)CNC(=O)/C=C/CCCCCC/C=C/c1ccc2c(c1)OCO2 [PIPERCHABAMIDE D] | 57 | 77 | 37 | – | –
O=C(/C=C/CCc1ccc2c(c1)OCO2)N1CCCCC1 [PIPERANINE] | 31 | 50 | 53 | – | –
CCCCCCCCCCCCC/C=C/C=C/C(=O)NCC(C)C | 37 | 41 | 43 | 15 | –
CCCCC/C=C\CCCCCCCC/C=C/C=C/C(=O)NCC(C)C | 3 | 19 | 27 | 10 | –
CC(C)CNC(=O)/C=C/C=C/CCCC/C=C/c1ccc2c(c1)OCO2 [RETROFRACTAMIDE B] | 54 | 51 | 26 | 32 | –
CCCCCCC/C=C/C=C/C(=O)NCC(C)C | 21 | 31 | 44 | 12 | –
CC(C)CNC(=O)/C=C/C=C/CCCCCC/C=C/c1ccc2c(c1)OCO2 [GUINEENSINE] | 26 | 33 | 12 | – | –
O=C(/C=C/CCCCCC/C=C/c1ccc2c(c1)OCO2)N1CCCCC1 [PIPERCHABAMIDE B] | 63 | 74 | 78 | – | –
